Test results reported in patent publication US6369225B1, “Compounds having activity as inhibitors of cytochrome P450RAI” (Allergan Sales, Inc., priority 2000, dated 2002).
pEC50, pIC50: −log10 of the molar value.

Key:
RARα = biological target: T1, RARα (Homo sapiens, UniProt P10276); experiment: chimeric receptor transactivation assay, RARα; type: cell-based; conditions: EC50 line of EC50/(EFFICACY)/Kd, read-out: RAR EC50 α
T1 sequence (P10276 183-462 limits assumed): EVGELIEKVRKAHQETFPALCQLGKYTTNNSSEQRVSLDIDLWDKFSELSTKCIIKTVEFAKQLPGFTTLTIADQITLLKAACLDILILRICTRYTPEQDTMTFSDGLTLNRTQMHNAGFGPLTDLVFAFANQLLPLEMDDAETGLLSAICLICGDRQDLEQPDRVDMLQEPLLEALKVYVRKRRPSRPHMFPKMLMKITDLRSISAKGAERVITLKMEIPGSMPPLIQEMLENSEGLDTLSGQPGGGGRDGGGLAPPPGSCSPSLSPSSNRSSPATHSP
Excerpt: (§1) Assays described below measure the ability of a compound to bind to, and/or activate various retinoid receptor subtypes. When in these assays a compound binds to a given receptor subtype and activates the transcription of a reporter gene through that subtype, then the compound is considered an agonist of that receptor subtype. […] In the below described assays the ability of the compounds to bind to RARα, RARβ, RARγ, RXRα, RXRβ and RXRγ receptors, and the ability or inability of the compounds to activate transcription of a reporter gene through these receptor subtypes can be tested.
(§2) As far as specific assays are concerned, a chimeric receptor transactivation assay which tests for agonist-like activity in the RARα, RARβ, AND RARγ, receptor subtypes, and which is based on work published by Feigner P. L. and Holm M. (1989) Focus, 112 is described in detail in U.S. Pat. No. 5,455,265. The specification of U.S. Pat. No. 5,455,265 is hereby expressly incorporated by reference. The numeric results obtained with several preferred compounds of this invention in this assay are shown below in Table 1.

P450RAI-1 = biological target: T2, P450RAI-1 (Homo sapiens, UniProt O43174); experiment: P450RAI-1 cell-based inhibitor assay; conditions: P450RAI-1 stably transfected HeLa cells, [3H]-RA metabolism, 3 hours at 37° C.; read-out: P450RAI INHIBITION DATA INTACT HELA IC50
T2 construct: expressed in transfected cells; host or cells: HeLa cells, stably transfected, hygromycin selection
T2 sequence (O43174 1-497): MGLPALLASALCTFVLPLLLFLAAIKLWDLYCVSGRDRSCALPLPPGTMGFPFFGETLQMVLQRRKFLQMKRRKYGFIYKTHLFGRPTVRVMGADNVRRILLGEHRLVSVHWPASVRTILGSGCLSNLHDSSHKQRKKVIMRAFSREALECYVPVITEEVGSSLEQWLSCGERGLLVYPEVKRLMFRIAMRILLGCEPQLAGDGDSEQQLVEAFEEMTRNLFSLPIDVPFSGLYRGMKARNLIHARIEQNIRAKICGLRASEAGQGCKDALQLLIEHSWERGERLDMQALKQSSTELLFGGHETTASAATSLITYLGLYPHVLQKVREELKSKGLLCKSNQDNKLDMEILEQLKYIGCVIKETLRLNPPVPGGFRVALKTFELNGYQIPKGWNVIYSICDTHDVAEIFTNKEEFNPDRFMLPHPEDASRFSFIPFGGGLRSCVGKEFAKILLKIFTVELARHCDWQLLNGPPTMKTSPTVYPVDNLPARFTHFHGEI
Procedure, shortened: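 HeLa cells stably expressing the enzyme (5×10^5/well) incubated 3 h at 37 °C with 0.05 μCi [3H]-all-trans-RA and compound at 10, 1 or 0.1 μM in triplicate. Water-soluble radioactive metabolites counted by scintillation; IC50 derived manually from log-transformed data.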

RARβ = biological target: T3, RARβ (Homo sapiens, UniProt P10826); experiment: chimeric receptor transactivation assay, RARβ; type: cell-based; conditions: EC50 line of EC50/(EFFICACY)/Kd, read-out: RAR EC50 β
T3 sequence (P10826 183-417 limits assumed): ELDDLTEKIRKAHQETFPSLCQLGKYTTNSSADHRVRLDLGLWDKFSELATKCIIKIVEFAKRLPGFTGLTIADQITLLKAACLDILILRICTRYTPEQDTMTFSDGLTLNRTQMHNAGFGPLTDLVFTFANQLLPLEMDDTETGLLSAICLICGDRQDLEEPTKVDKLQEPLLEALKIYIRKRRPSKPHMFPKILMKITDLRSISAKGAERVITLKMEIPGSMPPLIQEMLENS
Excerpt: as §1, §2

RARγ = biological target: T4, RARγ (Homo sapiens, UniProt P13631); experiment: chimeric receptor transactivation assay, RARγ; type: cell-based; conditions: EC50 line of EC50/(EFFICACY)/Kd, read-out: RAR EC50 γ
T4 sequence (P13631 185-419 limits assumed): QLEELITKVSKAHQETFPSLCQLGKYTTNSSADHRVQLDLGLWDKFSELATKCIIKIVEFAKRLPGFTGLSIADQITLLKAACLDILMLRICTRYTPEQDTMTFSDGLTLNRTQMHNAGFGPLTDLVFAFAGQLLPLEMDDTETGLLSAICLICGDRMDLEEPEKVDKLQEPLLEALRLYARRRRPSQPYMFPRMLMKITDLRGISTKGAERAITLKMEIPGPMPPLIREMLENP
Excerpt: as §1, §2

SMILES	pEC50 (RARα)	pIC50 (P450RAI-1)	pEC50 (RARβ)	pEC50 (RARγ)
CC1(C)CCC(=O)c2ccc(C#Cc3ccc(C(=O)O)c(F)c3)cc21 [Compound 10, 2-Fluoro-4-(8,8-dimethyl-5-oxo-5,6,7,8-tetrahydro-naphthalen-2yl-ethynyl)benzoic Acid]	7.24	6.15	9.52	8.22
CN(C1CC1)C1CCC(C)(C)c2cc(C#Cc3ccc(C(=O)O)c(F)c3)ccc21 (stereo not shown) [Compound 13, 4-[5-(Cyclopropyl-methyl-amino)-8,8-dimethyl-5,6,7,8-tetrahydro-naphthalene-2-yl-ethynyl]-2-fluoro Benzoic Acid]	–	5.51	8.49	6.94
